How the values were obtained:
Test in all cases: Experiment 3: detecting an esterase activity in liquid medium (API-type strips)
Format in all cases: cell-based
Set-up in all cases: key: —: the symbol “-” corresponds to the absence of color or intensity; 0 corresponds to no activity; 0.1 corresponds to a trace of color; 0.5 corresponds to very pale coloration; 1 corresponds to clear but low-intensity coloration; 1.5 corresponds to a degree of coloration intermediate between scores 1 and 2; 2 corresponds to clear coloration of moderate intensity; 2.5 corresponds to a degree of coloration intermediate between scores 2 and 3; 3 corresponds to intense coloration; 3.5 corresponds to a degree of coloration intermediate between scores 3 and 4; 4 corresponds to very intense coloration
Conditions in all cases: 37° C.
Listeria innocua 171 = tested on: Listeria innocua 171
Protocol: (§1) In Table 1 above, as in the following Tables, C represents the color of the colonies after incubation, I represents the intensity of the color, and the symbol “-” corresponds to the absence of color or intensity; finally, IT defines the incubation time. It should be noted that the intensity of the color is scored on an arbitrary scale but one which is consistent for all the biological specimens and media tested. This scale is valid for this experiment as well as all those that follow. It can be defined in the following way: • 0 corresponds to no activity, • 0.1 corresponds to a trace of color, • 0.5 corresponds to very pale coloration, • 1 corresponds to clear but low-intensity coloration, • 1.5 corresponds to a degree of coloration intermediate between scores 1 and 2, • 2 corresponds to clear coloration of moderate intensity, • 2.5 corresponds to a degree of coloration intermediate between scores 2 and 3, • 3 corresponds to intense coloration, • 3.5 corresponds to a degree of coloration intermediate between scores 3 and 4, • 4 corresponds to very intense coloration.
(§2) These substrates were lyophilized in the wells of API-type strips (Registered Trademark). Before use, the substrates contained in the wells were resuspended in an agar-free Columbia-type inoculation medium. These wells were then inoculated with a suspension (density=2 McFarland) of microorganisms taken from either the Applicant's own collection or the ATCC. The strips were incubated for 8 hours at 37° C. The colonies which grew were examined by eye after 4, 6 and 8 hours of incubation.
(§3) The intensity of the color of the colonies was recorded.

Listeria ivanovii 018 = tested on: Listeria ivanovii 018
Protocol: as §1, §2, §3

Listeria seeligeri 011 = tested on: Listeria seeligeri 011
Protocol: as §1, §2, §3

[1] = tested on: Listeria monocytogenes 092
Protocol: as §1, §2, §3

Listeria welshimeri 023 = tested on: Listeria welshimeri 023
Protocol: as §1, §2, §3

[2] = tested on: Listeria monocytogenes ATCC 19115
Protocol: as §1, §2, §3

[3] = tested on: Listeria grayi ATCC 19120
Protocol: as §1, §2, §3

SMILES | I (intensity of the color) (Listeria innocua 171; IT 4 h) | I (intensity of the color) (Listeria innocua 171; IT 6 h) | I (intensity of the color) (Listeria innocua 171; IT 8 h) | I (intensity of the color) (Listeria ivanovii 018; IT 4 h) | I (intensity of the color) (Listeria ivanovii 018; IT 6 h) | I (intensity of the color) (Listeria ivanovii 018; IT 8 h) | I (intensity of the color) (Listeria seeligeri 011; IT 4 h) | I (intensity of the color) (Listeria seeligeri 011; IT 6 h) | I (intensity of the color) (Listeria seeligeri 011; IT 8 h) | I (intensity of the color) ([1]; IT 4 h) | I (intensity of the color) ([1]; IT 6 h) | I (intensity of the color) ([1]; IT 8 h) | I (intensity of the color) (Listeria welshimeri 023; IT 4 h) | I (intensity of the color) (Listeria welshimeri 023; IT 6 h) | I (intensity of the color) (Listeria welshimeri 023; IT 8 h) | I (intensity of the color) ([2]; IT 4 h) | I (intensity of the color) ([2]; IT 6 h) | I (intensity of the color) ([2]; IT 8 h) | I (intensity of the color) ([3]; IT 4 h) | I (intensity of the color) ([3]; IT 6 h) | further results
CCCCCCCC(=O)Oc1c[nH]c2cc(Cl)c(Br)cc12 [Magenta-C8, 5-Bromo-6-chloro-3-indolyl octanoate] | — | — | — | — | — | — | — | — | — | — | — | 0.5 | — | — | — | — | — | 0.5 | — | — | I (intensity of the color) ([3]; IT 8 h): —
CCCCCCCC(=O)Oc1c[nH]c2cc(Cl)ccc12 [Pink-C8, 6-Chloro-3-indolyl octanoate] | — | — | — | — | — | — | — | — | — | — | — | — | — | — | — | — | — | — | — | — | I (intensity of the color) ([3]; IT 8 h): —
CCCCCCCC(=O)Oc1c[nH]c2ccc(Br)c(Cl)c12 [X-C8, 5-Bromo-4-chloro-3-indolyl octanoate] | — | — | — | — | — | — | — | 0.5 | 0.5 | — | 1 | 1.5 | — | — | — | — | 1 | 1.5 | — | — | I (intensity of the color) ([3]; IT 8 h): —

Source: patent publication US7407775B2, “Method for identifying Listeria monocytogenes and culture medium” (Biomerieux S.A., priority 2000, dated 2008)
